From ChEMBL document CHEMBL1152560, “Substituted 2-arylbenzothiazoles as kinase inhibitors: hit-to-lead optimization” (Bioorg Med Chem, 2009)

Tests used:
[1] = molecular target: T1, Phosphorylase b kinase gamma catalytic chain, liver/testis isoform (Homo sapiens) (UniProt P15735); test: Residual activity of PHKG2 at 1 uM by microplate scintillation counting
T1 sequence (whole entry): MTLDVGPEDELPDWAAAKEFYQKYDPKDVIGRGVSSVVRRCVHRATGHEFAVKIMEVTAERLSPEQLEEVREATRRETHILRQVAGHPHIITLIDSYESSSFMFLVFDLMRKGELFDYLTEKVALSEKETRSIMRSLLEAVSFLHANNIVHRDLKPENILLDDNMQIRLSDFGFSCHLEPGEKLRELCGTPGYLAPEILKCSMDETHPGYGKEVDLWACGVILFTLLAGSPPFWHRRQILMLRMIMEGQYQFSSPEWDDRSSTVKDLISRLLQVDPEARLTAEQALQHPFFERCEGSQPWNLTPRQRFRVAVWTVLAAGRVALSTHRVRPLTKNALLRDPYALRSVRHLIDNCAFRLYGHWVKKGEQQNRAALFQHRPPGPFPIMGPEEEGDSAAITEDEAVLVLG

[2] = molecular target: T2, Inhibitor of nuclear factor kappa-B kinase subunit epsilon (Homo sapiens) (UniProt Q14164); test: Residual activity of IKKepsilon at 1 uM by microplate scintillation counting
T2 sequence (whole entry): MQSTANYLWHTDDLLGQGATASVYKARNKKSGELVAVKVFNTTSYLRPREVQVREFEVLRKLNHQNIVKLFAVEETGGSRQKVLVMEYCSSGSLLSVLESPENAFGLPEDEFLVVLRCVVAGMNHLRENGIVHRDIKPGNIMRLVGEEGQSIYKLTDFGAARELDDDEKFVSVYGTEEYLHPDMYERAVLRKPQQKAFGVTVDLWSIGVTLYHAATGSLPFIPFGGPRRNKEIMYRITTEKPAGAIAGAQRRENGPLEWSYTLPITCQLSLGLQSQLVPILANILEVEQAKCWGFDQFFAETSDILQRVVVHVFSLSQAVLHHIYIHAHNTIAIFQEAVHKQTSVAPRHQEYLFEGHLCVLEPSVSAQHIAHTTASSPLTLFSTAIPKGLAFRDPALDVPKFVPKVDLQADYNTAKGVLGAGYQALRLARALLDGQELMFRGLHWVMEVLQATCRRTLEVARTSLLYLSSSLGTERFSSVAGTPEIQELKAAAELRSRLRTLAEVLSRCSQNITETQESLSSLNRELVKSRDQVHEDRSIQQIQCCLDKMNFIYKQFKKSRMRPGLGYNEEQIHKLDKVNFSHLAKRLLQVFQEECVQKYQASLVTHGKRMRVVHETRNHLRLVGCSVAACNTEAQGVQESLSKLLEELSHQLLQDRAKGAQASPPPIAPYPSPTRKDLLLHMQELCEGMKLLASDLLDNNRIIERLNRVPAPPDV

[3] = molecular target: T3, NUAK family SNF1-like kinase 2 (Homo sapiens) (UniProt Q9H093); test: Residual activity of SNARK at 1 uM by microplate scintillation counting
T3 sequence (whole entry): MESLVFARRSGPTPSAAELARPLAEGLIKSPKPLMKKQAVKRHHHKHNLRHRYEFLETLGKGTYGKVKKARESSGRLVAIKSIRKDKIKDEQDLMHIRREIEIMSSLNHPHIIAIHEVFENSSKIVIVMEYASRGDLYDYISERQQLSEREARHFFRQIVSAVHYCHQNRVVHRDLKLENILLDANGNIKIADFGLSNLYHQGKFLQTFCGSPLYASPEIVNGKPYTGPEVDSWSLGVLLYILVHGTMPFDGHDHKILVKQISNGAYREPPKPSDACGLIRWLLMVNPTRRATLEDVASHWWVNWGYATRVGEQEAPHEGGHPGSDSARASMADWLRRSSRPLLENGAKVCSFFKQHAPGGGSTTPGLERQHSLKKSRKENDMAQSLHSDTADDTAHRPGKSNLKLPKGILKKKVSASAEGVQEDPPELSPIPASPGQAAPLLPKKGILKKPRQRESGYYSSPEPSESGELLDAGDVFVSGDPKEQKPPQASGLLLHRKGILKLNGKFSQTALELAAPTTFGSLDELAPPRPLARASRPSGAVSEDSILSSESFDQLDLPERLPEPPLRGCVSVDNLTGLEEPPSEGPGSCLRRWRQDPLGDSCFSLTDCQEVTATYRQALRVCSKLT

[4] = test system: Epidermal growth factor receptor (Homo sapiens), P00533 [T790M]; test: Residual activity of EGFR T790M mutant at 10 uM by microplate scintillation counting
[5] = molecular target: Ephrin type-A receptor 7 (Homo sapiens) (UniProt Q15375); test: Residual activity of EPHA7 at 10 uM by microplate scintillation counting
Sequence of Ephrin type-A receptor 7 (Homo sapiens) (Q15375 28-998 limits assumed): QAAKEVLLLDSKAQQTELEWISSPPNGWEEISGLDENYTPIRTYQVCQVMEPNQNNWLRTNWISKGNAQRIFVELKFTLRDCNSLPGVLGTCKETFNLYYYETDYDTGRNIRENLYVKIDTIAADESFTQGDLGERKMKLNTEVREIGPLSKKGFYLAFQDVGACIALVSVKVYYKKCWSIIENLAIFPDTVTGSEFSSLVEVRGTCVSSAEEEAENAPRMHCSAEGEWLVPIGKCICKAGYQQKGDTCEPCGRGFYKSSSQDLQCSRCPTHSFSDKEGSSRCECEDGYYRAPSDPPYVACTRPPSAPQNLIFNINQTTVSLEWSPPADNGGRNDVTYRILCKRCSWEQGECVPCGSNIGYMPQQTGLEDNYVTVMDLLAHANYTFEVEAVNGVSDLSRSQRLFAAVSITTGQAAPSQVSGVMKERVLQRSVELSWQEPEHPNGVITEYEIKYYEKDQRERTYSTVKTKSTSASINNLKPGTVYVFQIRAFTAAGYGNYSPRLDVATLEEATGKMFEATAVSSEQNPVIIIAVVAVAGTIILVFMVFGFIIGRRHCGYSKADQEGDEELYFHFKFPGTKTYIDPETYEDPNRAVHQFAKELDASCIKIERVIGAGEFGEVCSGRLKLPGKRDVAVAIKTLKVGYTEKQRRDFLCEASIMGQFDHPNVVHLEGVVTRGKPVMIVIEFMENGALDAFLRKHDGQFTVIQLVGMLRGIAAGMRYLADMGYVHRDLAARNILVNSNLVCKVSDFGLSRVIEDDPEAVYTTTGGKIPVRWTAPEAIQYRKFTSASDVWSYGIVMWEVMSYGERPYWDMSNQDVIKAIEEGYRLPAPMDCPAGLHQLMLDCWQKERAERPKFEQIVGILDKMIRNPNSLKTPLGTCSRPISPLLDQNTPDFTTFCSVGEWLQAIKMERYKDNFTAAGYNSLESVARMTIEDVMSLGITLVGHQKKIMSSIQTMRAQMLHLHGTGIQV

[6] = molecular target: T4, Tyrosine-protein kinase ZAP-70 (Homo sapiens) (UniProt P43403); test: Residual activity of ZAP70 at 0.1 uM by microplate scintillation counting
T4 sequence (whole entry): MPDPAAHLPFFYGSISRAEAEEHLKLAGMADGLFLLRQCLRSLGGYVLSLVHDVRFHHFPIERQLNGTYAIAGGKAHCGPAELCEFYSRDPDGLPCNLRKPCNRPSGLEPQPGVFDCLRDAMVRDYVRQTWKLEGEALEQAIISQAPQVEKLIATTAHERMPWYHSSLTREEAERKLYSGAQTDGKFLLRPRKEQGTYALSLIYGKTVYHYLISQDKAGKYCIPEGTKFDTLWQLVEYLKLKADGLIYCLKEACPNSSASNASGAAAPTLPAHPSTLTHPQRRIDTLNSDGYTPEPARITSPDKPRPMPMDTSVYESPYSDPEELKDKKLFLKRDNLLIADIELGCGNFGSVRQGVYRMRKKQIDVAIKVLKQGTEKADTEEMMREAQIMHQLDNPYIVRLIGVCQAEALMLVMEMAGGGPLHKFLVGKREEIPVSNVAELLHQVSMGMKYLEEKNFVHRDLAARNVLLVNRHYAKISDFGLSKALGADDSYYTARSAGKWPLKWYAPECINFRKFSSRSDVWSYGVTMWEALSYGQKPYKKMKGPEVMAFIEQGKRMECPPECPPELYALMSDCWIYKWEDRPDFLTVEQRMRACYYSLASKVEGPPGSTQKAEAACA

[7] = molecular target: Cyclin-dependent kinase 5/CDK5 activator 1 (Homo sapiens) (UniProt Q00535+Q15078); test: Residual activity of CDK5/p25NCK at 10 uM by microplate scintillation counting; type: protein-complex assay
Sequence of Cyclin-dependent kinase 5/CDK5 activator 1 (Homo sapiens) (Q00535 whole entry): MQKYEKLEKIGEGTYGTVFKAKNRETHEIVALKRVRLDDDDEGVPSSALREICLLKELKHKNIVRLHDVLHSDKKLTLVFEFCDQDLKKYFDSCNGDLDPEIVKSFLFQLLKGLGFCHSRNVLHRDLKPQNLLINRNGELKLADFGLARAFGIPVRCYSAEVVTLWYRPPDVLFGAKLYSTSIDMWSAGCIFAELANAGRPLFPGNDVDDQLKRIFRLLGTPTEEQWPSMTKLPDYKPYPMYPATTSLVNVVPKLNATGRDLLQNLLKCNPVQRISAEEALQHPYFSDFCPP
Sequence of Cyclin-dependent kinase 5/CDK5 activator 1 (Homo sapiens) (Q15078 99-307 partner limits assumed): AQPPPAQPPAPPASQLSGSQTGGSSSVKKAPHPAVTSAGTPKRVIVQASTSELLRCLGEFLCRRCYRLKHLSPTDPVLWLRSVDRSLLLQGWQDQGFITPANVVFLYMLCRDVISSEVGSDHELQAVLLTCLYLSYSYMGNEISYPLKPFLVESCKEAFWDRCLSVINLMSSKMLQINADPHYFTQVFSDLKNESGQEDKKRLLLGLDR

[8] = molecular target: Serine/threonine-protein kinase 24 (Homo sapiens) (UniProt Q9Y6E0); test: Residual activity of MST3 at 10 uM by microplate scintillation counting
Sequence of Serine/threonine-protein kinase 24 (Homo sapiens) (Q9Y6E0 whole entry, looked up): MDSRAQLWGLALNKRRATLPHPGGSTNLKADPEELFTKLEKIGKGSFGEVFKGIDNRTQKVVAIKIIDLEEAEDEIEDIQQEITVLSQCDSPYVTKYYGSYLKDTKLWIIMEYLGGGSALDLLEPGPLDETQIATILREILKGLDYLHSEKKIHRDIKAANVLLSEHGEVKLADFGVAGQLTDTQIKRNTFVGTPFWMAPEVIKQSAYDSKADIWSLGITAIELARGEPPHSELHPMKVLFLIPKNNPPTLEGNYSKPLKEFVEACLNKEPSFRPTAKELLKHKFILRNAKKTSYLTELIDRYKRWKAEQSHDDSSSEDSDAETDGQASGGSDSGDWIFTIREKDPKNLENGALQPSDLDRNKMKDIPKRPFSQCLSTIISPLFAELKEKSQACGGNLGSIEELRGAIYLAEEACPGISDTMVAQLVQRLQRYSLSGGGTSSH

[9] = molecular target: Cyclin-dependent kinase 2/cyclin A (Homo sapiens) (UniProt P24941+P20248+P78396); test: Residual activity of CDK2/Cyclin A at 1 uM by microplate scintillation counting; type: protein-complex assay

residual activity [1] | residual activity [2] | residual activity [3] | residual activity [4] | residual activity [5] | residual activity [6] | residual activity [7] | residual activity [8] | residual activity [9] | SMILES
80% | 98% | 88% | 96% | 108% | 111% | 117% | 165% | 96% | COc1cc2c(Oc3ccc(-c4nc5ccccc5s4)cc3)ncnc2cc1OCCCN1CCCC1
96% | 90% | 87% | 88% | 116% | 112% | 112% | 231% | 96% | COc1cc2c(Oc3ccc(-c4nc5ccccc5s4)cc3)ncnc2cc1OCCCN1CCN(C)CC1
72% | 81% | 91% | 41% | 49% | 108% | 116% | 229% | 97% | COc1cc2c(Oc3ccc(-c4nc5ccccc5s4)cc3F)ncnc2cc1OCCCN1CCN(C)CC1
